In brackets after ≈: the same amount, converted by molar mass.

Data set [1] concerns Enterobacter cloacae 963. Nature of the data set: MIC, agar medium dilution method. In kind it is cell-based. The conditions noted are these: nutrient agar. The procedure:
(§1) The minimum inhibitory concentration (MIC) of thiomarinol, given as μg/ml, against gram-positive and gram-negative bacteria was determined by the agar medium dilution method, using a nutrient agar medium (Product of Eiken Chemical Co., Ltd.).

Data set [2] deals with Enterococcus faecalis 681. Nature of the data set: MIC, agar medium dilution method. In kind it is cell-based. The conditions noted are these: nutrient agar. The procedure: as §1
For data set [3], the system named is Escherichia coli 609. The data set is described as follows: MIC, agar medium dilution method. In kind it is cell-based. The conditions noted are these: nutrient agar. On the procedure: as §1
The subject of data set [4] is Escherichia coli NHIJ. The data set is described as follows: MIC, agar medium dilution method. In kind it is cell-based. The conditions noted are these: nutrient agar. On the procedure: as §1
Data set [5] has as its system Klebsiella pneumoniae 806. The data set is described as follows: MIC, agar medium dilution method. As to conditions: nutrient agar. In kind it is cell-based. On the procedure:
as §1

The subject of data set [6] is Klebsiella pneumoniae 846 (R). Nature of the data set: MIC, agar medium dilution method. In kind it is cell-based. The conditions noted are these: nutrient agar, (R) strain. The procedure: as §1
Data set [7] has as its system Morganella morganii 1510. Nature of the data set: MIC, agar medium dilution method. In kind it is cell-based. The conditions noted are these: nutrient agar. The procedure: as §1
In data set [8] the test system is Proteus vulgaris 1420. Nature of the data set: MIC, agar medium dilution method. In kind it is cell-based. As to conditions: nutrient agar. The procedure:
as §1

The test system of data set [9] is Pseudomonas aeruginosa 1001. Nature of the data set: MIC, agar medium dilution method. In kind it is cell-based. As to conditions: nutrient agar. On the procedure: as §1
The test system of data set [10] is Pseudomonas aeruginosa N07. Nature of the data set: MIC, agar medium dilution method. In kind it is cell-based. The conditions noted are these: nutrient agar. On the procedure: as §1
Data set [11] has as its system Salmonella enteritidis. Nature of the data set: MIC, agar medium dilution method. In kind it is cell-based. As to conditions: Salmonella enterica, nutrient agar. The procedure: as §1
For data set [12], the system named is Serratia marcescens 1184. Nature of the data set: MIC, agar medium dilution method. In kind it is cell-based. The conditions noted are these: nutrient agar. The procedure:
as §1

Data set [13] relates to Staphylococcus aureus 209P. The data set is described as follows: MIC, agar medium dilution method. In kind it is cell-based. As to conditions: nutrient agar. On the procedure: as §1
The subject of data set [14] is Staphylococcus aureus 535 (MRSA). The data set is described as follows: MIC, agar medium dilution method. In kind it is cell-based. As to conditions: nutrient agar. The procedure:
as §1

For data set [15], the system named is Staphylococcus aureus 56R. Nature of the data set: MIC, agar medium dilution method. In kind it is cell-based. The conditions noted are these: nutrient agar. On the procedure:
as §1

The test system of data set [16] is Mycoplasma bovis Donetta. The data set is described as follows: Antimycoplasmal activity (MIC). In kind it is cell-based. The conditions noted are these: Mycoplasmopsis bovis, 120 h; Chanock medium, 20% horse serum; 37° C., 5 days, slightly aerobic; 0.005 ml of 10^5 CFU/ml.
Data set [17] has as its system Mycoplasma gallisepticum PG-31. The data set is described as follows: Antimycoplasmal activity (MIC). As to conditions: Mycoplasmoides gallisepticum, PG31, 120 h; Chanock medium, 20% horse serum; 37° C., 5 days, slightly aerobic; 0.005 ml of 10^5 CFU/ml. In kind it is cell-based.
Data set [18] has as its system Mycoplasma gallisepticum S-6. Nature of the data set: Antimycoplasmal activity (MIC). In kind it is cell-based. The conditions noted are these: Mycoplasmoides gallisepticum, S6, 120 h; Chanock medium, 20% horse serum; 37° C., 5 days, slightly aerobic; 0.005 ml of 10^5 CFU/ml.
For data set [19], the system named is Mycoplasma gallisepticum K-1. The data set is described as follows: Antimycoplasmal activity (MIC). As to conditions: Mycoplasmoides gallisepticum, K1, 120 h; Chanock medium, 20% horse serum; 37° C., 5 days, slightly aerobic; 0.005 ml of 10^5 CFU/ml. In kind it is cell-based.
Data set [20] has as its system Mycoplasma synoviae WVU1853. The data set is described as follows: Antimycoplasmal activity (MIC). In kind it is cell-based. The conditions noted are these: Mycoplasmopsis synoviae, WVU1853, 120 h; Frey medium, 12% swine serum; 37° C., 5 days, slightly aerobic; 0.005 ml of 10^5 CFU/ml. The procedure:
(§2) Following the procedure as described below, the activity of thiomarinol was assayed against various species of mycoplasma.
M. synoviae Frey medium [prepared as de-
scribed in Am. J. Vet. Res., --29,
(§3) 37° C., 5 days, slightly aerobic
(§4) (BBL gas pack method [cultivation
(§5) in disposable CO2 generator from
(§6) Becton Dickinson Microbiology
(§7) Systems, Cockeysville, MD 2103

For data set [21], the system named is Mycoplasma hyosynoviae S-16. The data set is described as follows: Antimycoplasmal activity (MIC). In kind it is cell-based. As to conditions: S16, 120 h, Mucin PPLO agar medium, 15% horse serum, 37° C., 5 days, slightly aerobic, 0.005 ml of 10^5 CFU/ml. On the procedure: as §2
M. hyosynoviae Mucin PPLO* agar medium (15%
horse serum supplemented)
as §3, §4, §5, §6, §7
*PPLO ( -- Pleuro -- Pneumonia- -- Like
PPLO Broth without CV (Difco)
Mucin bacteriological (Difco)
Agar Noble (Difco) 12 g
25% Fresh yeast extract 50 ml

A short description of data set [22]: Solubility. In kind it is physicochemical.

Consider `C/C(=C\C(=O)OCCCCCCCC(=O)Nc1c2sscc-2[nH]c1=O)C(O)C1OCC(C/C=C/C(C)C(C)O)C(O)C1O` (single isomer, unassigned) [thiomarinol], for which the MIC – broadly, the lowest concentration that inhibits growth of the organism – in data set [1] worked out at 1.5 µg/mL (≈ 2.34 µM); in data set [2], 0.02 µg/mL (≈ 0.0312 µM); in [3] it was 0.8 µg/mL (≈ 1.25 µM); in data set [4], 0.8 µg/mL (≈ 1.25 µM); in [5] it was 0.8 µg/mL (≈ 1.25 µM); in data set [6], 0.2 µg/mL (≈ 0.312 µM). The MIC in [7] was 6.2 µg/mL (≈ 9.68 µM); in [8] it was 0.05 µg/mL (≈ 0.078 µM); in data set [9], 0.2 µg/mL (≈ 0.312 µM); in data set [10] it was 0.4 µg/mL (≈ 0.624 µM); in data set [11] it was 0.4 µg/mL (≈ 0.624 µM); in data set [12], 3.1 µg/mL (≈ 4.84 µM). The MIC in [13] was not above 0.01 µg/mL; in data set [14] it was not above 0.01 µg/mL; in [15], not above 0.01 µg/mL; in [16] it was 0.0125 µg/mL (≈ 0.0195 µM); in data set [17], 0.05 µg/mL (≈ 0.078 µM); in data set [18], 0.1 µg/mL (≈ 0.156 µM). The minimal inhibitory concentration (MIC) in [19] is 0.05 µg/mL (≈ 0.078 µM); in data set [20] it was less than 0.006 µg/mL; in data set [21] it was 0.025 µg/mL (≈ 0.039 µM). The Solubility result in data set [22] (alcohols (methanol, ethanol, propanol, butanol), dimethyl sulfoxide, dimethylformamide, chloroform, ethyl acetate, acetone, ethyl ether) was “Soluble”; in [22] (hexane) it was “insoluble”; in data set [22] (water), “insoluble”.

Values taken from patent US5292892A, “Anti-bacterial compound and pharmaceutical compositions thereof” (Sankyo Company, Limited, priority 1991, dated 1994).
